According to patent US20170042991A1, “COMPOSITIONS COMPRISING GLUTEN PEPTIDES AND USES THEREOF” (ImmusanT, Inc., priority 2014, published 2017):
Non-standard residues stand in square brackets, D forms with d. pGlu = O=C1CC[C@@H](C(=O)O)N1

Key:
Assay type in all cases: cell-based, human
whole blood [1] = assay: 96-well plate whole blood multiplex cytokine release, IP-10 (MAGPIX bead assay, Example 2); conditions: for Percent of maximal response, IP-10: after oral gluten challenge; for IP-10 WB MAGPIX % max Mean: individual peptides 5 μM, Day-6, n = 10, Peptide 2 = CSBio batch
whole blood [2] = assay: 96-well plate whole blood multiplex cytokine release, IFNγ (MAGPIX bead assay, Example 2); conditions: for Percent of maximal response, IFNg: after oral gluten challenge; for IFNγ WB MAGPIX % max Mean: individual peptides 5 μM, Day-6, n = 8, Peptide 2 = CSBio batch
PBMC = assay: Overnight IFNγ ELISpot assay with fresh PBMC (Example 2); conditions: for Percent of maximal response, ELISp: after oral gluten challenge; for IFNγ ELISpot % max Mean: individual peptides 5 μM, Day-6, n = 5, Peptide 2 = CSBio batch
Method: Ten HLA-DQ2.5+ adults with celiac disease diagnosed according to the National Institutes of Health Consensus Statement 2004 were enrolled (Table 7).^22 Subjects were required to have followed gluten-free diet for at least one year and without known gluten exposures within the previous two-months. […] Full inclusion and exclusion criteria are described in Table 8. Each of 3 consecutive days subjects consumed 3 cookies that were prepared from approximately 4.5 g wheat gluten, 3 g barley flour protein, and 1.5 g rye flour protein. Blood was collected before and six days after commencing the oral challenge. Blood was collected using a 21G butterfly needle directly into 10 mL lithium heparin tubes (BD Vacutainer® Heparin tube #367880) and QuantiFERON® NIL (0591-0205, Cellestis Ltd., Chadstone VIC 3148 Australia) and QuantiFERON® MITOGEN (0593-0201, Cellestis Ltd.).
Overnight IFNγ ELISpot assays (Human IFN-γ ELISpotPRO kit, transparent, ALP; Mabtech AB, #3420-2APT-10) were performed using PBMC freshly separated from heparinized blood diluted 1:1 in PBS with 2% fetal bovine serum (Stemcell Technologies #07905; Vancouver, BC, V5Z 1B3, Canada) overlaid on density gradient medium (Ficoll-Paque™ PLUS; GE Healthcare Lice Sciences #:17-1440-02) in SepMate™-50 tubes (Stemcell Technologies #15460). PBMC (8 million/mL) were resuspended in serum-free medium with gentamicin and phenol red (X-VIVO™15; Lonza, Walkersville Mass. 21793). PBMC (0.4 million/50 μL/well) and incubated with 50 μL 80% X-vivol5, 0.2% DMSO and 20% PBS in three triplicate wells (“medium only”), or with 50 μL PHA-L 20 μg/ml or peptide at 2× final concentration in 80% X-vivol5, 0.2% DMSO and 20% PBS. Peptide solutions to be added to individual ELISpot wells were prepared in 96-well U-bottom plates (60 μL/well) that were then sealed with adhesive ELISA plate cover slips before replacing the plastic lid and being frozen at −80° C. 96-well plates containing peptide solutions were thawed at room temperature for 10 min while being centrifuged at 300 g immediately prior to being added to ELISpot wells. Peptide pools and mitogen were assessed in triplicate wells, and individual peptides were assessed in duplicate wells. X-VIVO™15 (50 μL) was incubated with 80% X-vivol5, 0.2% DMSO and 20% PBS (50 μL) in triplicate wells (“no PBMC” control). A Zeiss automated ELISpot counter was used to determine spot forming units (SFU) per well (Zellnet Inc., Fort Lee, N.J. 07024). Laboratory staff were unaware of the arrangement of peptide solutions in ELISpot wells during assay setup and plate counting.

Substance | Percent of maximal response, IP-10 (whole blood [1]; Subject 1, Max. 2331 pg/mL) | Percent of maximal response, IP-10 (whole blood [1]; Subject 2, Max. 3646 pg/mL) | Percent of maximal response, IP-10 (whole blood [1]; Subject 3, Max. 9492 pg/mL) | Percent of maximal response, IP-10 (whole blood [1]; Subject 4, Max. 9463 pg/mL) | Percent of maximal response, IP-10 (whole blood [1]; Subject 5, Max. 9336 pg/mL) | Percent of maximal response, IP-10 (whole blood [1]; Subject 6, Max. 5863 pg/mL) | Percent of maximal response, IP-10 (whole blood [1]; Subject 7, Max. 2330 pg/mL) | Percent of maximal response, IP-10 (whole blood [1]; Subject 8, Max. 4019 pg/mL) | Percent of maximal response, IP-10 (whole blood [1]; Subject 9, Max. 8349 pg/mL) | Percent of maximal response, IP-10 (whole blood [1]; Subject 10, Max. 8922 pg/mL) | IP-10 WB MAGPIX % max Mean (whole blood [1]) [% max] | Percent of maximal response, IFNg (whole blood [2]; Subject 2, Max. 116 pg/mL) | Percent of maximal response, IFNg (whole blood [2]; Subject 3, Max. 799 pg/mL) | Percent of maximal response, IFNg (whole blood [2]; Subject 4, Max. 136 pg/mL) | Percent of maximal response, IFNg (whole blood [2]; Subject 6, Max. 72 pg/mL) | Percent of maximal response, IFNg (whole blood [2]; Subject 7, Max. 17 pg/mL) | Percent of maximal response, IFNg (whole blood [2]; Subject 8, Max. 47 pg/mL) | Percent of maximal response, IFNg (whole blood [2]; Subject 9, Max. 67 pg/mL) | Percent of maximal response, IFNg (whole blood [2]; Subject 10, Max. 229 pg/mL) | IFNγ WB MAGPIX % max Mean (whole blood [2]) [% max] | further results
(pE)LQPFPQPELPYPQPQ-amide ([pGlu]LQPFPQPELPYPQPQ-NH2; SMILES CC(C)C[C@H](NC(=O)[C@@H]1CCC(=O)N1)C(=O)N[C@@H](CCC(N)=O)C(=O)N1CCC[C@H]1C(=O)N[C@@H](Cc1ccccc1)C(=O)N1CCC[C@H]1C(=O)N[C@@H](CCC(N)=O)C(=O)N1CCC[C@H]1C(=O)N[C@@H](CCC(=O)O)C(=O)N[C@@H](CC(C)C)C(=O)N1CCC[C@H]1C(=O)N[C@@H](Cc1ccc(O)cc1)C(=O)N1CCC[C@H]1C(=O)N[C@@H](CCC(N)=O)C(=O)N1CCC[C@H]1C(=O)N[C@@H](CCC(N)=O)C(N)=O) [Peptide 1] | 100 % of max | 100 % of max | ≥ 100 % of max | 96 % of max | 14 % of max | 23 % of max | 39 % of max | 3 % of max | 75 % of max | 34 % of max | 58 | 100 % of max | 14 % of max | 26 % of max | 25 % of max | 43 % of max | 6 % of max | 43 % of max | 7 % of max | 33 | Percent of maximal response, ELISp (PBMC; Subject 3, Max. 18 SFU): 11 % of max; Percent of maximal response, ELISp (PBMC; Subject 4, Max. 36 SFU): 22 % of max; Percent of maximal response, ELISp (PBMC; Subject 6, Max. 16 SFU): 25 % of max; Percent of maximal response, ELISp (PBMC; Subject 8, Max. 17 SFU): 0 % of max; Percent of maximal response, ELISp (PBMC; Subject 10, Max. 11 SFU): 9 % of max; IFNγ ELISpot % max Mean (PBMC): 13 % max
(pE)PEQPIPEQPQPYPQQ-amide ([pGlu]PEQPIPEQPQPYPQQ-NH2; SMILES CC[C@H](C)[C@H](NC(=O)[C@@H]1CCCN1C(=O)[C@H](CCC(N)=O)NC(=O)[C@H](CCC(=O)O)NC(=O)[C@@H]1CCCN1C(=O)[C@@H]1CCC(=O)N1)C(=O)N1CCC[C@H]1C(=O)N[C@@H](CCC(=O)O)C(=O)N[C@@H](CCC(N)=O)C(=O)N1CCC[C@H]1C(=O)N[C@@H](CCC(N)=O)C(=O)N1CCC[C@H]1C(=O)N[C@@H](Cc1ccc(O)cc1)C(=O)N1CCC[C@H]1C(=O)N[C@@H](CCC(N)=O)C(=O)N[C@@H](CCC(N)=O)C(N)=O) [Peptide 3] | 51 % of max | 14 % of max | ≥ 100 % of max | ≥ 100 % of max | 53 % of max | 43 % of max | 5 % of max | 100 % of max | 85 % of max | ≥ 100 % of max | 65 | 35 % of max | 92 % of max | 66 % of max | 63 % of max | 6 % of max | 89 % of max | 60 % of max | 81 % of max | 62 | whole blood IP-10 release compared with that stimulated by Peptide 14 (whole blood [1]; whole blood incubations): one-quarter less; whole blood IFNγ release compared with that stimulated by Peptide 14 (whole blood [2]; whole blood incubations): one-third less; IFNγ ELISpot responses relative to Peptide 14 5 μM (PBMC; Peptide 3 10 μg/mL (5.3 μM)): one-half; Percent of maximal response, ELISp (PBMC; Subject 3, Max. 18 SFU): 50 % of max; Percent of maximal response, ELISp (PBMC; Subject 4, Max. 36 SFU): 83 % of max; Percent of maximal response, ELISp (PBMC; Subject 6, Max. 16 SFU): 69 % of max; Percent of maximal response, ELISp (PBMC; Subject 8, Max. 17 SFU): 53 % of max; Percent of maximal response, ELISp (PBMC; Subject 10, Max. 11 SFU): 9 % of max; IFNγ ELISpot % max Mean (PBMC): 53 % max
